Measurements from US20010034342A1, “Substituted urea and isothiourea derivatives as no synthase inhibitors” (priority 1993, published 2001).
Where two headings read alike, the source gives them in different places.

Columns and labels:
Type in all cases: biochemical
inducible human NOS = target: T1, inducible human NOS (Homo sapiens, UniProt P35228); test: Assay for inducible human NOS (citrulline formation), enzyme from cytokine-induced DLD-1 cells
T1 construct: Purification of NOS cytokine-induced human colorectal adenocarcinoma DLD-1 cells; endogenous in cells; host or cells: DLD-1 (ATCC No. CCL 221), induced with IFN-gamma, IL-6, TNF and IL-1beta
Experimental: (§1) NOS was assayed for the formation of citrulline following the procedure of Schmidt et al (PNAS 88 365-369, 1991) with these modifications: 20 mM Hepes, pH 7.4, 10 μg/ml calmodulin, 2.5 mM CaCl2 2.5 mM DTT, 125 μM NADPH 10 μM H4 Biopterin, 0.5 mg/ml BSA, and 1 μM L-[14C] arginine (New England Nuclear). Linearity of NOS-catalyzed rate was confirmed prior to kinetic studies that used single tine point determination of rate.
DLD-1 (ATCC No. CCL 221) were grown at 37° C., 5% CO2 in RPMI 1640 medium supplemented with L-glutamin, penicillin, streptomycin, and 10% heat-inactivated fetal bovine serum. Cells were grown to confluency and then the following cocktail of cytokines were added: 100 units/ml interferon-gamma, 200 units/ml interleukin-6, 10 ng/ml tumor necrosis factor, and 0.5 ng/mil interleukin-1β. At 10-24 hr post-induction, cells were harvested by scraping and washed with phosphate-buffered saline. Pelleted cells were stored at −70° C. Purification of the induced NOS was performed at 4° C. Crude extract was prepared by three cycles of freeze/thawing cells in TDGB (20 mM tris pH 7.5, 10% glycerol, 1 mM DTT, 2 μM tetrahydrobiopterin). Extract was applied directly onto a column of 2′,5′ ADP sepharse (Pharmacia). Resin was sequentially washed with TDGB, 0.5 M NaCl in TDGB, TDGB. NOS was eluted with 2 mM NADPH in TDGB. BSA was immediately added to give a final concentration of 1 mg/ml. NOS could be quick frozen and stored at −70° C. without loss in activity for at least 2 months.
Assay for inducible human NOS.
The formation of citrulline was assayed as described above except that 10 μM FAD was included and calmodulin and CaCl2 were excluded from the assay mix.

human placental NOS = target: T2, human placental NOS (Homo sapiens, UniProt P29474); test: Assay for human placental NOS (citrulline formation)
T2 construct: Purification of NOS from human placenta; from tissue; host or cells: fresh human placenta
Experimental: as §1

Human brain NOS = target: T3, Human brain NOS (Homo sapiens, UniProt P29475); test: Human brain NOS enzyme activity assay; details: for Ki: isolated enzyme from human brain
T3 construct: Purification of NOS from human brain; from tissue; host or cells: frozen human brain
Experimental: The mixture was centrifuged at 13,000 g for 1 hour and the supernatant was removed (about 2050 ml). […] The precipitate was pelleted at 13,000 g for 30 minutes and the pellet was resuspended in −400 mls of buffer A with 4 μM tetrahydrobiopterin, 1 μm FAD (Sigma), 1 μM FMN (Sigma). The solution was centrifuged at 41,000 g for 60 minutes. The supernatant was removed, frozen by pouring into liquid nitrogen, and stored overnight at −70° C. The mixture was thawed and passed through a 2′,5′ ADP-agarose column (0.4 g swelled in buffer A) at 4 ml/min. The column was washed with 100 ml buffer A, 200 ml buffer A with 500 mM NaCl, 100 ml Buffer A, then 30 ml buffer A with 5 mM NADPH. […] To the enzyme was added tetrahydrobiopterin to 10 μM, FAD and FMN to 1 μM, and tween to 0.1%. This solution was concentrated by centriprep-30 to a volume of approximately 500 μl. Human NOS was prepared completely analogously except the calmodulin-agarose column was not used.

[1] = isolated enzyme from DLD-1 cells, read-out: Human Inducible Ki/μM
[2] = isolated enzyme from human placenta, read-out: Human Placental Ki/μM
[3] = from percent inhibition at three or more concentrations at a single time point, assuming competitive inhibition with respect to arginine, read-out: Human Inducible Ki/μM (footnote b)

T1 sequence (P35228 whole entry): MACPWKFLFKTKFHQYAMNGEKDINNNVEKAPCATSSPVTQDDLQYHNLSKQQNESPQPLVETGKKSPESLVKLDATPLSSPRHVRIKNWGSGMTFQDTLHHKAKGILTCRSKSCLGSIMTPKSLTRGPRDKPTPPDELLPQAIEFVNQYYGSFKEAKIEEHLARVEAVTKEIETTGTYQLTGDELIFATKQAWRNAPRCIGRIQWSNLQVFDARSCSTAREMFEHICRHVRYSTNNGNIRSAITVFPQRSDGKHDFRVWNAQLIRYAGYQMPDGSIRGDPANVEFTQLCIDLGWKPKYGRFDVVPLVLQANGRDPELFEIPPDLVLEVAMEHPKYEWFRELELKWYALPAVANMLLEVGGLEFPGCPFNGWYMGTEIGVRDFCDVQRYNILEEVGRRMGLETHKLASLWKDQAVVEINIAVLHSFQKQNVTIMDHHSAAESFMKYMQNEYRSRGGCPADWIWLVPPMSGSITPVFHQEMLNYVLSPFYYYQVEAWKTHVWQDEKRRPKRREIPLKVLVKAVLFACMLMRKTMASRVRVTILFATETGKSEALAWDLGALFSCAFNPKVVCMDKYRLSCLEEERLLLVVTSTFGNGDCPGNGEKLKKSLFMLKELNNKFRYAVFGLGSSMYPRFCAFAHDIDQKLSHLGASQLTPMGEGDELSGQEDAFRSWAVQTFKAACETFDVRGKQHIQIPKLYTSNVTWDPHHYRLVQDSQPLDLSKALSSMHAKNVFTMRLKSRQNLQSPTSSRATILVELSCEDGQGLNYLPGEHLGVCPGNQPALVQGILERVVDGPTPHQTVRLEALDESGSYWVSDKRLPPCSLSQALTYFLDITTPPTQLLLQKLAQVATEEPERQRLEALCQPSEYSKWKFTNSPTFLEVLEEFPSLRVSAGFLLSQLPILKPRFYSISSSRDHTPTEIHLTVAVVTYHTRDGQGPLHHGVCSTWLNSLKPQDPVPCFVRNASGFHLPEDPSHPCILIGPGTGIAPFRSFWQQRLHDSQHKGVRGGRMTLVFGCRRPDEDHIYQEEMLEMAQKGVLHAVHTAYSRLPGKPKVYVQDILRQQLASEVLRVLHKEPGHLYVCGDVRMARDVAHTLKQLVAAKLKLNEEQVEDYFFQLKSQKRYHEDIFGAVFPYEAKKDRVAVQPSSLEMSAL
T2 sequence (P29474 2-1203): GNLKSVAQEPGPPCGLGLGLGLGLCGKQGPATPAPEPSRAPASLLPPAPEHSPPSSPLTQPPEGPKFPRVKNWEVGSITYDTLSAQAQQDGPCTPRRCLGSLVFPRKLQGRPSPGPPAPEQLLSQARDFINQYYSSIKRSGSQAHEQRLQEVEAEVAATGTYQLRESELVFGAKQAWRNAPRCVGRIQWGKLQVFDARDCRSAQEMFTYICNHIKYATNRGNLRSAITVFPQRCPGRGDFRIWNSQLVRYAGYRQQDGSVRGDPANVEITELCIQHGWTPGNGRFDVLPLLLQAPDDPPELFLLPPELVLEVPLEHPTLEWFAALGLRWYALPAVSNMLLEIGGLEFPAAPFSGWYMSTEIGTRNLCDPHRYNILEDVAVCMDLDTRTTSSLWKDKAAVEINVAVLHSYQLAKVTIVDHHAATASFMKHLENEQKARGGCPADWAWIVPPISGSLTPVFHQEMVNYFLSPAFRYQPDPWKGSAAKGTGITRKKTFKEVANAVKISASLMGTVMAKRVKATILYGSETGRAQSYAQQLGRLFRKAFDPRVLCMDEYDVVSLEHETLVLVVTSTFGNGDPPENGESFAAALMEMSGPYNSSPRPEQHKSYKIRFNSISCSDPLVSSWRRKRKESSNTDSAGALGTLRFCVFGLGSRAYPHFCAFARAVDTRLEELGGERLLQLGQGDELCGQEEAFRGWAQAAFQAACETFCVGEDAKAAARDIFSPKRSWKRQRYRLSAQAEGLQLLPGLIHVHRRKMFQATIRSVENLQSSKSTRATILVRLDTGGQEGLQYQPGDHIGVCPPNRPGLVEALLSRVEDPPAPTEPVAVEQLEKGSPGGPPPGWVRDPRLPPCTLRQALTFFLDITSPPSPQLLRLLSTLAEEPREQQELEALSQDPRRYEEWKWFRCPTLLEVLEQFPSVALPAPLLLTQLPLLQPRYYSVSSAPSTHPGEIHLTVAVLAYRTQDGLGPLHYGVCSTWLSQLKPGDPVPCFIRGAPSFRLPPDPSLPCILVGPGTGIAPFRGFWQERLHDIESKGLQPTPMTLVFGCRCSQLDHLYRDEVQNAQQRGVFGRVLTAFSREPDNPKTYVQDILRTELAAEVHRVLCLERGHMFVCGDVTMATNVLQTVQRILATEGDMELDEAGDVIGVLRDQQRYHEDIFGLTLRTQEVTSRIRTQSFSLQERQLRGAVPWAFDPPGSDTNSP
T3 sequence (P29475 whole entry): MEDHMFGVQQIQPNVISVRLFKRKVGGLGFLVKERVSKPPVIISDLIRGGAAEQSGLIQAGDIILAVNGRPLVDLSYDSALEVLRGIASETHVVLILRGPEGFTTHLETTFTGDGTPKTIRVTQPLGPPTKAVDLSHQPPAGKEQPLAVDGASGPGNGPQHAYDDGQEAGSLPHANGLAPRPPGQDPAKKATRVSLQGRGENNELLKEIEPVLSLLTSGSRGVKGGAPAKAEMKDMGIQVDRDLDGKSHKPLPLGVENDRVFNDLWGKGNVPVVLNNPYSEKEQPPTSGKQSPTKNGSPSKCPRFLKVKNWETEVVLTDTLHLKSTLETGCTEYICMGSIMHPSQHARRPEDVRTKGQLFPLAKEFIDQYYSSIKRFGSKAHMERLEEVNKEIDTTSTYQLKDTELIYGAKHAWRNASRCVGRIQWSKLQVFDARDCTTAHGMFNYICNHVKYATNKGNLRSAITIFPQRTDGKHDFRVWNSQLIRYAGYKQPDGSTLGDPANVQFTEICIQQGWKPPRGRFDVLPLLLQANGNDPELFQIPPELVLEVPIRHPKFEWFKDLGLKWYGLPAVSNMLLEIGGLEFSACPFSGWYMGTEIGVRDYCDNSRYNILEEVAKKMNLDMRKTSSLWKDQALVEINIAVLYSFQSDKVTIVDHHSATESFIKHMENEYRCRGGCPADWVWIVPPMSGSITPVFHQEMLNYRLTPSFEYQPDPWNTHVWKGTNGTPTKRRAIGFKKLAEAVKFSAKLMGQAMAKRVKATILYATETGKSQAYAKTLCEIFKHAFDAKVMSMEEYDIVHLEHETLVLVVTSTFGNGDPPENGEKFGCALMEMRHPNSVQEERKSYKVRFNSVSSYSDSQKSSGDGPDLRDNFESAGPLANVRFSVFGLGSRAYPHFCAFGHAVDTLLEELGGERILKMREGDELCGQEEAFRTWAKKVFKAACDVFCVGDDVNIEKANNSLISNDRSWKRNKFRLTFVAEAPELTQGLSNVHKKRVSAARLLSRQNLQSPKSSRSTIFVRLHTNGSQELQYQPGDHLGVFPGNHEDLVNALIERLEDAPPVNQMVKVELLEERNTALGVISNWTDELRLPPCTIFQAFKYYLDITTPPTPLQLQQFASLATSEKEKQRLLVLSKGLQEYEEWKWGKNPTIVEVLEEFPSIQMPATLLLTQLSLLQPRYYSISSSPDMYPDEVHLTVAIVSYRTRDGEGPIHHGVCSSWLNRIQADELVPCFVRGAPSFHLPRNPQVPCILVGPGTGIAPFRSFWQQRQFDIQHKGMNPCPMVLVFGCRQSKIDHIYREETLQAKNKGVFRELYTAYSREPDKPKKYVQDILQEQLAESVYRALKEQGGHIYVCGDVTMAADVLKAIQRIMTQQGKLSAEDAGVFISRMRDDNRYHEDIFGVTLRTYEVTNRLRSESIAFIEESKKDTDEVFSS

| Compound | Ki (inducible human NOS; [1]) [µM] | Ki (human placental NOS; [2]) [µM] | Ki (Human brain NOS) [µM] | other results |
| --- | --- | --- | --- | --- |
| CCSC(=N)Nc1ccc(Oc2ccccc2)cc1 [Example 1, S-Ethyl-N-(4-phenoxyphenyl)isothiourea] | 3.1 | 4 | 0.19 ± 0.01 | – |
| CCOC(=O)c1ccc(NC(=N)SCC)cc1 [Example 1C, S-ethyl-N-[4-(ethoxycarbonyl)phenyl]isothiourea] | > 25 | 12 | 1.6 | – |
| CCSC(=N)Nc1ccc(C)cc1 [Example 2I, S-Ethyl-N-(4-methylphenyl)isothiourea] | 1.9 | 1 | 0.18 ± 0.04 | – |
| CCSC(=N)Nc1cc(C(F)(F)F)ccc1Cl [Example 2L, S-Ethyl-N-(2-chloro-5-(trifluoromethyl)phenyl)isothiourea] | – | – | – | Human Inducible, percent (inhibition), concentration not given (inducible human NOS; concentration not given): 20%; Human Placental, percent (inhibition), concentration not given (human placental NOS; concentration not given): 6%; Human Brain, percent (inhibition), concentration not given (Human brain NOS; concentration not given): 40% |
| CCSC(=N)Nc1ccc(C2CCCCC2)cc1 [Example 1H, S-ethyl-N-(4-cyclohexylphenyl)isothiourea] | 28 | 14 | 1.5 ± 0.07 | – |
| CCSC(=N)Nc1cccc(OC)c1 [Example 1A, S-ethyl-N-(3-methoxyphenyl)isothiourea] | 3.2 | 3.1 | 0.56 ± 0.02 | – |
| CCSC(=N)Nc1ccc(OCc2ccccc2)cc1 [Example 1B, S-ethyl-N-[4-(benzyloxy)phenyl]isothiourea] | 6.6 | 2.8 | 0.21 ± 0.01 | – |
| CCSC(=N)Nc1cccnc1 [Example 2J, S-Ethyl-N-(3-pyridyl)isothiourea] | – | 6.9 | 1 | inhibition at 25 µM (inducible human NOS; @ 25 μM inhibitor, read-out: Human Inducible, percent (inhibition) @ 25 μM): 47% |
| CCSC(=N)Nc1ccc(N(C)C)cc1 [Example 1G, S-ethyl-N-(4-dimethylaminophenyl)isothiourea] | 29 | 9 | 1.4 ± 0.01 | – |
| N[C@@H](CCCNC1=NCCS1)C(=O)O [Example 5, N^5-(2-thiazolin-2-yl)-L-ornithine] | 3.3 | 5.5 | – | – |
| CCSC(=N)Nc1cccc(C(F)(F)F)c1 [Example 2E, S-Ethyl-N-[3-(trifluoromethyl)phenyl]isothiourea] | 3.2 | 28 | 1.1 ± 0.01 | – |
| N^5-(iminomethoxymethyl)-L-ornithine dihydrochloride [10^c(i)] | – | – | – | Ki (inducible human NOS; [3]): 0.22 µM; Ki (human placental NOS; from percent inhibition at three or more concentrations at a single time point, assuming competitive inhibition with respect to arginine, read-out: Human Placental Ki/μM (footnote b)): 0.12 µM |
| N^6-((methylpropylthio)iminomethyl-D-lysine [Example 9N] | – | 99 | 61 | – |
| CCSC(=N)Nc1ccc(C(C)C)cc1 [Example 2D, S-Ethyl-N-(4-isopropylphenyl)isothiourea] | – | 7.7 | 0.33 | – |
| N[C@@H](CCCCNC1=NCCS1)C(=O)O [Example 5A, N^6-(2-thiazolin-2-yl)-L-lysine] | 11 | 21 | – | – |
| CCSC(=N)Nc1cccc(C(=O)O)c1 [Example 1E, S-ethyl-N-(3-carboxyphenyl)isothiourea] | 44 | 14 | – | – |
| N^5-(ethoxyiminomethyl)-L-ornithine dihydrochloride [10^c(ii)] | – | – | – | Ki (inducible human NOS; [3]): 0.1 µM; Ki (human placental NOS; from steady state inhibited rate / control rate, assuming competitive inhibition with respect to arginine, read-out: Human Placental Ki/μM (footnote a)): 0.006 µM |

The next lines start with results.

| Ki (inducible human NOS; [1]) [µM] | Ki (human placental NOS; [2]) [µM] | Ki (Human brain NOS) [µM] | Compound | other results |
| --- | --- | --- | --- | --- |
| 22.6 | 23.2 | 28 | CC(C)SC(=N)NCCCC[C@H](N)C(=O)O [Example 9D, N^6-(imino(1-methylethylthio)methyl)L-lysine] | – |
| 0.15 | 2.1 | 0.9 | CC(C)SC(=N)NCCC[C@H](N)C(=O)O [Example 9C, N^5-(imino(1-methylethylthio)methyl)-L-ornithine] | – |
| 19 | 23 | 108 | CC(C)SC(=N)NCCCC[C@@H](N)C(=O)O [Example 9L] | – |
| 13 | – | 19.5 | CC(C)CSC(=N)NCCC[C@@H](N)C(=O)O [Example 9M, N^5-((2-methylpropylthio)iminethyl)-D-ornithine] | – |
| – | 79 | 61 | CC(C)CSC(=N)NCCCC[C@H](N)C(=O)O [Example 9F, N^6-(imino(2-methylpropylthio)methyl)-L-lysine] | – |
